How the values were obtained:
[1] = In vitro release of triclosan from films; format: physicochemical; settings: in vitro testing
[2] = Implantation of sleeve-covered metal plates in sheep; settings: within 24 hours after insertion, sleeves
Method: In one exemplary embodiment, implants were tested by implantation in sheep. The implants were metal plates with tubular, thin (0.05-0.08 mm), transparent polymer sleeves carefully slipped over the metal plates just before they were surgically inserted and attached to the bone. […] The sleeves were comprised of a synthetic copolyester (glycolide, caprolactone, trimethylenecarbonate, lactide) with aperture holes of 1.5 mm diameter equally spaced throughout.

S. aureus ATCC 25923 = experiment: Zone of inhibition (ZOI) on Mueller Hinton agar; format: cell-based; settings: 6 mm punches or filter disk, 36° C., 16-18 hours
Method: (§1) Testing was performed with 4 different species of bacteria. […] S. aureus ATCC 25923; S. epidermidis ATCC 12228; Pseudomonas aeruginosa ATCC 10145; Enterobacter [NT] 29941 Glass culture tubes (VWR #:89001-480); Blank Disks, 6.35 mm diameter (VWR#: 90002-114); 6 mm Disposable Biopsy Punches (VWR#: 21909-144); Mueller Hinton agar dishes (VWR #: 100219-188); 0.5 McFarland turbidity standard (VWR #: 29447-318); dPBS (VWR #: 12001-664); Cotton swabs; Incubator; Thermometer; Bacterial hood […] Swirl the swab in this tube and when removing the swab, press it into the side of the tube above the liquid. • Inoculate Mueller-Hinton agar plates by streaking once down the middle of the plate. […] After streaking the entire plate, streak the swab around the rim of the plate. • Place filter disks/punches onto the dish. • Place in the 36° C. incubator within 15 minutes inoculating dish. • Incubate 16-18 hours. • Measure ZOI in millimeters using slide caliper (ZOI was measured a linear distance measured through the center point of the disk). FIG. 28 illustrates the minimum effective concentration and measured ZOI.

[3] = test system: Enterobacter cloacae ATCC 29941; experiment: Zone of inhibition (ZOI) on Mueller Hinton agar; format: cell-based; settings: 6 mm punches or filter disk, 36° C., 16-18 hours
Method: as §1

[4] = test system: Pseudomonas aeruginosa ATCC 10145; experiment: Zone of inhibition (ZOI) on Mueller Hinton agar; format: cell-based; settings: 6 mm punches or filter disk, 36° C., 16-18 hours
Method: as §1

[5] = test system: S. epidermidis ATCC 12228; experiment: Zone of inhibition (ZOI) on Mueller Hinton agar; format: cell-based; settings: 6 mm punches or filter disk, 36° C., 16-18 hours
Method: as §1

## Oc1cc(Cl)ccc1Oc1ccc(Cl)cc1Cl [triclosan, 2,4,4′-trichloro-2′-hydroxydiphenyl ether]
[1]
  initial burst release: minimal
  period of release from films: slowly over a to 3 weeks period

## gentamicin
[2]
  gentamicin released into the adjacent tissue: Approximately 50%

## Gentamicin [120 ug gentamicin]
S. aureus ATCC 25923; 0.1-5% films data set
  Avg. ZOI (mm) S. aureus: 30.5 mm
S. aureus ATCC 25923; 13% film tested separately
  Avg. ZOI (mm) S. aureus: 28.73 mm
[3]; 0.1-5% films data set
  Avg. ZOI (mm) E. cloacae: 22.4 mm
[3]; 13% film tested separately
  Avg. ZOI (mm) E. cloacae: 25.27 mm
[4]; 0.1-5% films data set
  Avg. ZOI (mm) P. aeruginosa: 26.7 mm
[4]; 13% film tested separately
  Avg. ZOI (mm) P. aeruginosa: 24.90 mm
[5]; 0.1-5% films data set
  Avg. ZOI (mm) S. epidermidis: 34.9 mm
[5]; 13% film tested separately
  Avg. ZOI (mm) S. epidermidis: 31.37 mm

Reference: patent publication US10500304B2, “Films and methods of manufacture” (priority 2013, dated 2019)
